In patent US7524880B2, “Crystalline form of a substituted pyrrolidine compound” (Theravance, Inc., priority 2004, dated 2009):

Key:
hM2 receptor = biological target: T1, hM2 receptor (Homo sapiens, UniProt P08172); assay: Blockade of agonist-mediated [35S]GTPγS binding; format: biochemical; conditions: CHO-K1 cells expressing the hM2 receptor (membranes); read-out: Ki value for blockade of oxotremorine-stimulated [35S]GTPγS binding
T1 construct: expressed in transfected cells; host or cells: CHO-K1 cells
T1 sequence (P08172 1-466): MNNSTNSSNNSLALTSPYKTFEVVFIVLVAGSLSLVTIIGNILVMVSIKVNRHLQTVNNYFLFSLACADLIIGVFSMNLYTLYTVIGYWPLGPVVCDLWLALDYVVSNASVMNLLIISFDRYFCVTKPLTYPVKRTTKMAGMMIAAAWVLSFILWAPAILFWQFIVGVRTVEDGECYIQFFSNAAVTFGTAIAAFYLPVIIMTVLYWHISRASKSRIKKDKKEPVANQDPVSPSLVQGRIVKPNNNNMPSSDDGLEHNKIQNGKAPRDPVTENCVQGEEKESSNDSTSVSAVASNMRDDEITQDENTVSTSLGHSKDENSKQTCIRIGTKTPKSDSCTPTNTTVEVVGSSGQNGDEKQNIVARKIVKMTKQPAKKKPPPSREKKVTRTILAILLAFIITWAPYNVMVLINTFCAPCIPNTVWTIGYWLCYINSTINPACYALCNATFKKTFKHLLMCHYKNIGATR
Procedure: B. Blockade of Agonist-Mediated [^35 S]GTPγS Binding
In a second functional assay, the functional potency of a test compound is determined by measuring the ability of the compound to block oxotremorine-stimulated [^35S]GTPγS binding in CHO-K1 cells expressing the hM2 receptor.
At the time of use, frozen membranes were thawed and then diluted in assay buffer with a final target tissue concentration of 5-10 μg protein per well. The membranes were briefly homogenized using a Polytron PT-2100 tissue disrupter and then added to the assay plates.
The EC90 value (effective concentration for 90% maximal response) for stimulation of [^35S]GTPγS binding by the agonist oxotremorine was determined in each experiment.
The assay plates were then incubated at 37° C. for 60 minutes. The assay plates were filtered over 1% BSA-pretreated GF/B filters using a PerkinElmer 96-well harvester. The plates were rinsed with ice-cold wash buffer for 3×3 seconds and then air or vacuum dried. Microscint-20 scintillation liquid (50 μL) was added to each well, and each plate was sealed and radioactivity counted on a topcounter (PerkinElmer). Data were analyzed by nonlinear regression analysis with the GraphPad Prism Software package (GraphPad Software, Inc., San Diego, Calif.) using the non-linear regression, one-site competition equation. […]

[1] = biological target: T2, M3 muscarinic receptor subtype (hM3) (Homo sapiens, UniProt P20309); assay: Radioligand binding assay ([3H]-NMS displacement, CHO cell membranes); conditions: [3H]-NMS 1 nM, 60 minutes at 37° C.
T2 construct: expressed in transfected cells
T2 sequence (P20309 whole entry): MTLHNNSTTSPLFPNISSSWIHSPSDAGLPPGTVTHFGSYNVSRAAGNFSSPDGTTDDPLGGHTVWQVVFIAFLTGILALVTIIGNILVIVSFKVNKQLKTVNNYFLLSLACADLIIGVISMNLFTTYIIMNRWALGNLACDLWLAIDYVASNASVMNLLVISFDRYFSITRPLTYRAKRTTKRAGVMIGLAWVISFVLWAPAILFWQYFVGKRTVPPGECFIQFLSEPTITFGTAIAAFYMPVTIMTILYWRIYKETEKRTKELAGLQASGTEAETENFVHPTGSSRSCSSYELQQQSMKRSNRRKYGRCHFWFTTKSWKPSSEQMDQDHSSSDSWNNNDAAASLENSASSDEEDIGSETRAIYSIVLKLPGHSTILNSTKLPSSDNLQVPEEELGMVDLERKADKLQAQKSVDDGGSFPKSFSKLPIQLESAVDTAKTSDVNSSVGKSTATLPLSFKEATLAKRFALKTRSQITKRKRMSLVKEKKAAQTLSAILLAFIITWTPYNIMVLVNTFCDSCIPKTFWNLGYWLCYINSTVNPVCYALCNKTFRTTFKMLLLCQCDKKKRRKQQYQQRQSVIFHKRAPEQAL
Procedure: A. Membrane Preparation from Cells Expressing hM1, hM2, hM3 and hM4 Muscarinic Receptor Subtypes
CHO cell lines stably expressing cloned human hM1, hM2, hM3 and hM4 muscarinic receptor subtypes, respectively, were grown to near confluency in medium consisting of HAM's F-12 supplemented with 10% FBS and 250 μg/mL Geneticin. The cells were grown in a 5% CO2, 37° C. incubator and lifted with 2 mM EDTA in dPBS. Cells were collected by 5 minute centrifugation at 650×g, and cell pellets were either stored frozen at −80° C. or membranes were prepared immediately. For membrane preparation, cell pellets were resuspended in lysis buffer and homogenized with a Polytron PT-2100 tissue disrupter (Kinematica AG; 20 seconds×2 bursts). […] The protein concentration of the membrane suspension was determined by the method described in Lowry, O. et al., […] 193:265 (1951). […]
Radioligand binding assays were performed in 96-well microtiter plates in a total assay volume of 100 μL. […] Filter plates were rinsed three times with wash buffer (10 mM HEPES) to remove unbound radioactivity. […] The plates were then counted in a PerkinElmer Topcount liquid scintillation counter (PerkinElmer Inc., Wellesley, Mass.). Binding data were analyzed by nonlinear regression analysis with the GraphPad Prism Software package (GraphPad Software, Inc., San Diego, Calif.) using the one-site competition model. […]

`CNCCCCCCCCN1CC[C@@H](C(C(N)=O)(c2ccccc2)c2ccccc2)C1` [compound of formula I, 2-[(S)-1-(8-methylaminooctyl)pyrrolidin-3-yl]-2,2-diphenylacetamide] was tested, and the Ki (hM2 receptor) was under 5 nM and the Ki [1] was about 0.96 nM.
